# Assays:
# Format in all cases: cell-based
# [1] = system: CW2; test: Growth inhibition, CyQUANT Direct Cell Proliferation Assay, CW2; settings: Homo sapiens, CW-2; CW2 cells, 120 to 168 hours
# Method: (§1) SKCO1, LS180, and LS174T cell lines were purchased from ATCC. CW2 cell line was purchased from Riken. GP2D cell line was purchased from Sigma/ECACC. All cell lines were cultured in manufacturer's recommended media at 37° C., 5% CO2. Briefly, cells were suspended in 200 μL of media and seeded at 300 to 1,800 cells per well in tissue culture treated 96-well plates with black walls and clear bottom. Plates were incubated overnight and initial (TO) read was performed the following day using CyQUANT Direct Cell Proliferation Assay Kit (Thermo Fisher Scientific) according to manufacturer's protocol. All compounds were solubilized in DMSO and prepared at 3-fold serial dilution, using 9 points starting at 30 μM as highest concentration, administered to cells and incubated for 120 to 168 hours, at which point CyQUANT assay measurement was performed using Acumen Cellista instrument (Ex/Em 480/520 nm). Media-only wells were used as blank, and 0.3% DMSO was used as DMSO-treated cell control. Growth inhibition (percent response) was calculated using the following formula in Excel: “=if ([Compound treated Day N]>[Untreated Day 0, AVG], ([Compound treated Day N]− [Untreated Day 0, AVG])/([Untreated Day N]−[Untreated Day 0, AVG])*100, ([Compound Treated Day N]−[Untreated Day 0, AVG])/([Untreated Day 0, AVG])*100)”. GI50 is the response corresponding to the 50% of untreated control.
# (§2) GI50 data are reported in Tables 4a, 4b, 4c, 4d, and 4e for compounds in Table 1. In Tables 4a, 4b, 4c, 4d, and 4e below, According to the code, A represents a GI50 value of ≤0.1 μM, B represents a GI50 value >0.1 μM and ≤1 μM, C represents an GI50 value >1 μM.
# [2] = biological target: T1, CK1α (Homo sapiens, UniProt P48729+Q96SW2); test: CK1α NanoBit Assay (HiBiT-tagged CSNK1A1 in HEK293 cells, luminescence); settings: 24 h
# T1 construct: HEK293 clonal lines with CRISPR KI HiBiT tag on CSNK1A1; host or cells: HEK293 clonal line, CRISPR knock-in HiBiT at the CSNK1A1 locus, stably expressing LgBiT
# T1 sequence (P48729 whole entry): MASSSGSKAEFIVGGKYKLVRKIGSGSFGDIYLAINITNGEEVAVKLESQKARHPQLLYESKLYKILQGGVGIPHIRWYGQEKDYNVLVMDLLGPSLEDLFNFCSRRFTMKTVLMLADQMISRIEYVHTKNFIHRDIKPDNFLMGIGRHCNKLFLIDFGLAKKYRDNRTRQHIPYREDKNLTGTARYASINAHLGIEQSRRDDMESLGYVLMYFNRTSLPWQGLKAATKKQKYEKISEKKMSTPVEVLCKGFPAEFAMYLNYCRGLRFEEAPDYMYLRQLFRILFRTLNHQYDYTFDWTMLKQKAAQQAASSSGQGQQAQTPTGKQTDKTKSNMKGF
# T1 sequence (Q96SW2 whole entry): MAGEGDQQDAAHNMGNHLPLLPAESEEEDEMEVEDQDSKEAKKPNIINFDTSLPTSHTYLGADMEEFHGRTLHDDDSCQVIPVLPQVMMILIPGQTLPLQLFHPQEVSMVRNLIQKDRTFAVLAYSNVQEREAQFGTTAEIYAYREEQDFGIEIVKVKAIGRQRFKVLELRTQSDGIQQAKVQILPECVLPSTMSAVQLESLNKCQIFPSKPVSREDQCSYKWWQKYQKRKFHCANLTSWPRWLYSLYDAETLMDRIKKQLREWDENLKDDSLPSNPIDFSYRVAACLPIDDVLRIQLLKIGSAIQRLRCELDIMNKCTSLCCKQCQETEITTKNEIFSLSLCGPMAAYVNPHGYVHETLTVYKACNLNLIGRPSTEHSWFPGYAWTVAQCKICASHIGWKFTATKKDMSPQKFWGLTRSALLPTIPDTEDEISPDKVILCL
# T1 sequence (Q16531 whole entry partner): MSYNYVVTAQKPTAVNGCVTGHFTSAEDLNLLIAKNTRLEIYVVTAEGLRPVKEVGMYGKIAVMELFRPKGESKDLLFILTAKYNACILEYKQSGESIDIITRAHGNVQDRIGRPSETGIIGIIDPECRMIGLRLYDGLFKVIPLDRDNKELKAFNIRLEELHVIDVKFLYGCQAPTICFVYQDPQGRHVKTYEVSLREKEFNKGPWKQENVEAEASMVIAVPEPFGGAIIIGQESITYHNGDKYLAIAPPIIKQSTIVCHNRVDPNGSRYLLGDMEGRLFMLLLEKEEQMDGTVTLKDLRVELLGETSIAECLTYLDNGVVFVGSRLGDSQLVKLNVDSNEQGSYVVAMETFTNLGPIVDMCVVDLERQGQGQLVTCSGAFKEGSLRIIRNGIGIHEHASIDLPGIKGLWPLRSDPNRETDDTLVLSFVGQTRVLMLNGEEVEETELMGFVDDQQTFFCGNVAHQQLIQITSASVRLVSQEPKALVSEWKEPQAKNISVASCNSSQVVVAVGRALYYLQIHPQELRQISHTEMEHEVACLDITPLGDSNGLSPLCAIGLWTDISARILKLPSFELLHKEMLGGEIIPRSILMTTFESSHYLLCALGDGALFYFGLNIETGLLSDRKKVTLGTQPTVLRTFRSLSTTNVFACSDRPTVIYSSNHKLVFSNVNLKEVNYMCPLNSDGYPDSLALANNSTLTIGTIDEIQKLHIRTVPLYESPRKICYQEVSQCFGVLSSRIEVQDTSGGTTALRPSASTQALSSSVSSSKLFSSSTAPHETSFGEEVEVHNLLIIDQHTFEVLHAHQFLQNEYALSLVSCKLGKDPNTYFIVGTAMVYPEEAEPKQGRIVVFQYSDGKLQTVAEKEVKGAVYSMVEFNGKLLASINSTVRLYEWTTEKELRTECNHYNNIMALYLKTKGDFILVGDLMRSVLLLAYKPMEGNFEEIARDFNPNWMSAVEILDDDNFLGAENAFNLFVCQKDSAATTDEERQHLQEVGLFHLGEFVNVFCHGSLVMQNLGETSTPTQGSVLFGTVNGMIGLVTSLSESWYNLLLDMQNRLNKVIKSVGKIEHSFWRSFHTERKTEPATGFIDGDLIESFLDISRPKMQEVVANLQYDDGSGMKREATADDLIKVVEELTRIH
# Summary of the method: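 HEK293 with endogenous HiBiT-tagged CSNK1A1 and stable LgBiT, live-cell Endurazine substrate; compound added at 10 or 30 μM final top concentration after 16 h plating, then 24 h at 37 °C. Luminescence normalised to plate controls; DC50 by 3-parameter logistic fit, hill slope 1.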
# [3] = system: LS174T; test: Growth inhibition, CyQUANT Direct Cell Proliferation Assay, LS174T; settings: Homo sapiens; LS174T cells, 120 to 168 hours
# Method: as §1, §2
# [4] = system: SKCO1; test: Growth inhibition, CyQUANT Direct Cell Proliferation Assay, SKCO1; settings: Homo sapiens, SK-CO-1; SKCO1 cells, 120 to 168 hours
# Method: as §1, §2
DC50 [2] [µM],GI50 [4] [nM],SMILES,GI50 [1] [nM],GI50 [3] [nM]
≤ 0.1,≤ 100,"C[C@@H]1CN(c2ccc3c(c2)CN(C2CCC(=O)NC2=O)C3=O)C(=O)N1c1ccc(C2CC2)cc1 (stereo partly drawn) [Compound 125, 3-(5-((R)-3-(4-cyclopropylphenyl)-4-methyl-2-oxoimidazolidin-1-yl)-1-oxoisoindolin-2-yl)piperidine-2,6-dione]",≤ 100,≤ 100
≤ 0.1,100 to 1000,"C[C@@H]1CN(c2ccc3c(c2)CN(C2CCC(=O)NC2=O)C3=O)C(=O)N1c1ccccc1 (stereo partly drawn) [Compound 107, 3-(5-((R)-4-methyl-2-oxo-3-phenylimidazolidin-1-yl)-1-oxoisoindolin-2-yl)piperidine-2,6-dione]",≤ 100,> 1000
≤ 0.1,100 to 1000,"O=C1CCC(N2Cc3cc(N4CCN(c5ccccc5)C4=O)ccc3C2=O)C(=O)N1 (stereo not drawn) [Compound 101, 3-(1-oxo-5-(2-oxo-3-phenylimidazolidin-1-yl)isoindolin-2-yl)piperidine-2,6-dione]",100 to 1000,> 1000
